In paper PMC9030166, “Natural Phaeosphaeride A Derivatives Overcome Drug Resistance of Tumor Cells and Modulate Signaling Pathways” (Pharmaceuticals, 2022):

Columns and labels:
Assay type in all cases: cell-based, human
K562/i-S9 = assay: MTT cytotoxicity, resistant K562/i-S9 cells (ABCB1 transfected); conditions: for IC50: Homo sapiens, K562i/S9, resistant version, ABCB1 transfected, MTT, 48 h; for resistance of K562/i-S9 cells relative to K562: ratio of IC50 values, Table 4
Description: At the next stage, the cytotoxic activity of compounds 1, 2, and 9 (Scheme 2) was investigated on several pairs of cell lines that differ in the expression of P-gp and the method by which they were obtained. K562/i-S9 cells are the result of the ABCB1 transfection into K562 cells, which increases P-gp expression, but should not seriously affect other signaling pathways that could lead to drug resistance. K562/i-S9_Dox cells were obtained from K562/i-S9 by selection with low concentrations of doxorubicin to increase P-gp expression. Subline HBL-100/Dox is a derivative of HBL-100 cells, obtained by long-term selection with increasing concentrations of doxorubicin, which led not only to an increase in P-gp expression, but also to a change in the signaling pathways in this subline. Cells of the K562/i-S9_Dox subline express the highest level of P-gp: 94.7% ± 2.3 (p < 0.0001 relative to K562, and p = 0.04 relative to K562/i-S9). In cells of the K562/i-S9 line, the expression of P-gp is 80% ± 8.2 (p < 0.0001 relative to K562). At 0.7% ± 0.5, P-gp is practically not expressed in K562 cells (Figure 1).
(§1) Modifications of cell lines: K562/i-S9 is a clone obtained after transfection of K562 cells with the ABCB1 (MDR1) gene-encoding P-glycoprotein [36]. Cells HBL-100/Dox and K562/i-S9_Dox are cells obtained by long-term selection with increasing concentrations of doxorubicin (Sigma-Aldrich, St. Louis, MO, USA) from HBL-100 and K562/i-S9 cells, respectively. MCF-7, A594 cells, and primary cultures of soft tissue sarcomas were cultured in DMEM medium (PanEko, Russia), PC-3 and HCT-116 cells and all suspension cultures in RPMI1640 medium (PanEko, Russia) supplemented with 10% fetal bovine serum (GE Healthcare LifeSciences, USA), and gentamicin at a concentration of 40 μg/mL at 37 °C and 5% CO2.
(§2) Cells MCF-7, PC-3, A549, and HCT-116, and primary cultures of STSwere seeded in 96-well plates, 6 × 10^3 cells per well in 90 μL of culture medium. Suspension cultures were seeded at a concentration of 25 × 10^3 cells per well in 135 μL of medium. The test substances were dissolved in DMSO (Applichem, Council Bluffs, IA, USA) until a concentration of 1 × 10^−^2 M was obtained; for the subsequent dilution of the substances, a serum-free culture medium was used. The next day, for adhesive cultures, and on the same day, for suspension cultures, substances were added to the plates in a volume of 10 μL (adhesive cultures) and 15 μL (suspension cultures) per well at various concentrations; each concentration was added in 3–4 repetitions. The cells were cultured in the presence of substances for 48 h. Then, MTT reagent (PanEko, Moscow, Russia) was added to the wells at a concentration of 5 mg/mL in a volume of 20 μL per well. After 1.5–2 h, the medium with the reagent was removed, and the precipitate of the crystals of formazan was dissolved in 60 μL of DMSO. The optical density was determined using a Multiskan FC spectrophotometer (Thermo Scientific, Waltham, MA, USA) at a wavelength of 540 nm.
(§3) Based on the results of the experiments, a schedule was plotted of the dependence of the percentage of surviving cells (from control) on the concentration of the compound, and the sought concentration IC50 was calculated. The experiments were carried out in 3–4 times.

STAT5 (pTyr694/699) = assay: MILLIPLEX MAP 9-Plex, STAT5 active form in A431 lysates; conditions: 10 μM; for STAT5 (pTyr694/699) fluorescence intensity: A431 cell lysates, 1 h, M ± mx, control 44.2 ± 10.2
Description: (§4) We used the MILLIPLEX MAP Multi-Pathway Magnetic Bead 9-Plex-Cell Signaling Multiplex Assay, which allows the simultaneous detection of nine phosphorylated proteins that are markers of the main intracellular signaling pathways (phosphorylation site is indicated in parentheses), a universal transcription factor that controls the expression of immune response genes; apoptosis and cell cycle NFκB (pS536); cAMP-dependent transcription factor (CREB (pS133); mitogen-activated kinase p38 (pT180/pY182); stress-activated protein kinase JNK (pT183/pY185); ribosomal […]; transcription factors STAT3 (pS727) and STAT5A/B (pY694/699); protein kinase B (Akt) (pS473); and kinase regulated by extracellular signals ERK1/2 (pT185/pY187).
(§5) The effect of various concentrations of PPA derivatives on the cell culture was studied using xCelligence RTCA equipment (AceaBioscience, San Diego, CA, USA). The concentration closest to the IC50 (10 μM) was chosen as the experimental concentration. The selected concentration of phaeosphaeride A derivatives allows for the assessment of the early effect of compounds on cells and compares their effectiveness. In this experiment, the signaling pathways Akt (pSer473), p70S6K (pThr412), NFkB (p65-pSer536), and CREB (pSer133) were not activated (Table 8). The stress-activated signaling pathways ERK/MAP kinase 1/2 (pThr185/pTyr187), JNK (pThr183/pTyr185), and p38 (pThr180/pTyr182) were activated for these compounds.
(§6) We used a MILLIPLEX MAP Multi-Pathway Magnetic Bead 9-Plex-Cell Signaling Multiplex Assay kit (Merck/Millipore), according to the manufacturer’s protocol. A431 cells were cultured in DMEM with 10% FBS in 24-well plates. Compounds were added to the subconfluent cells at a concentration of 10 μM in DMEM medium for 1 h. Each compound was added in 5 experimental repeats. Cell lysates were prepared with lysis buffer (Millipore) with protease inhibitors (Complete, Roche); the protein concentration in the lysates was determined by the Lowry method. In samples equalized in protein concentration, the active forms of kinase cascades were determined using a Bio-Plex 200 fluorescent analyzer (Bio-Rad).

PC3 = assay: MTT cytotoxicity, PC-3 prostate adenocarcinoma cells; conditions: 48 h; for IC50: Homo sapiens, PC-3, adhesive tumor culture
Description: Cell cultures used in the work: adhesive cultures HBL-100 cells (cells of a normal mammary gland epithelium, immortalized by the SV40 virus and acquired tumorigenicity); MCF-7 breast cancer cells; PC-3 prostate adenocarcinoma cells; HCT-116 colorectal cancer cells; non-small cell lung cancer cells A549; human embryonic kidney cells HEK293; suspension cultures (NCI-H929 and RPMI8226 multiple myeloma cells), K562 chronic myeloid leukemia cells; THP-1 acute monocytic leukemia cells; and Jurkat acute T-cell leukemia cells. We also used several primary cultures of soft tissue sarcomas at 3–4passeges, kindly provided by T.I. Fetisov (The Ethics Committee of N.N. Blokhin NMRCO, protocol code 18-28-09095 and date of approval 28 September 2018).
as §1, §2, §3

STAT3 (pSer727) = assay: MILLIPLEX MAP 9-Plex, STAT3 active form in A431 lysates; conditions: 10 μM; for STAT3 (pSer727) fluorescence intensity: A431 cell lysates, 1 h, M ± mx, control 70.7 ± 18.3
Description: as §4, §5, §6

Row | SMILES | IC50 (K562/i-S9) [µM] | STAT5 (pTyr694/699) fluorescence intensity (STAT5 (pTyr694/699)) | activation of transcription factor STAT5A/B (pTyr694/699), in words (STAT5 (pTyr694/699); A431 cells) | IC50 (PC3) [µM] | STAT3 (pSer727) fluorescence intensity (STAT3 (pSer727)) | activation of transcription factor STAT3 (pSer727), in words (STAT3 (pSer727); A431 cells) | resistance of K562/i-S9 cells relative to K562 (K562/i-S9) | IC50 value, PC3 (PC3; adhesive tumor culture)
1 | C=C1C2=C(C(=O)N1OC)[C@@H](N(C)C)[C@@](C)(O)[C@H](CCCCC)O2 [Compound 2, (2S,3R,4R)-4-(dimethylamino)-3-hydroxy-6-methoxy-3-methyl-7-methylene-2-pentyl-3,4,6,7-tetrahydropyrano[2,3-c]pyrrol-5(2H)-one] | 1.6 ± 0.5 | 179.2 ± 12.6 *↑ rel. units | slightly activated | 5.9 ± 3 | 272.3 ± 50.5 *↑ rel. units | slightly activated |  | 
2 | C=C1C2=C(C(=O)N1OC)[C@@H](N(CC)CCO)[C@@](C)(O)[C@H](CCCCC)O2 [Compound 9, (2S,3R,4R)-4-[ethyl(2-hydroxyethyl)amino]-3-hydroxy-6-methoxy-3-methyl-7-methylene-2-pentyl-3,4,6,7-tetrahydropyrano[2,3-c]pyrrol-5(2H)-one] | 2.8 ± 0.6 | 69.6 ± 15.6 rel. units |  | 7.8 ± 0.1 | 151.5 ± 28.7 rel. units |  | tendency towards increased sensitivity | 
3 | C=C1C2=C(C(=O)N1OC)[C@@H](N1CCCC1)[C@@](C)(O)[C@H](CCCCC)O2 [Compound 1] | 2.4 ± 0.6 | 115.4 ± 28.3 rel. units |  | 7.6 ± 0.9 | 163.0 ± 20.7 *↑ rel. units |  | slightly greater sensitivity | 
4 | CCCCC[C@@H]1OC2=C(C(=O)N(OC)/C2=C\n2cnnc2)C(n2cnnc2)[C@@]1(C)O (stereo partly shown) [Compound 10] |  | 115.2 ± 16.9 *↑ rel. units |  |  | 178.9 ± 13.4 *↑ rel. units |  |  | not active
5 | C=C1C2=C(C(=O)N1OC)[C@@H](N(CCCC)CCCC)[C@@](C)(O)[C@H](CCCCC)O2 [Compound 5, (2S,3R,4R)-4-(dibutylamino)-3-hydroxy-6-methoxy-3-methyl-7-methylene-2-pentyl-3,4,6,7-tetrahydropyrano[2,3-c]pyrrol-5(2H)-one] |  | 75.7 ± 2.7 *↑ rel. units |  | 9.4 ± 1 | 123.4 ± 8.3 *↑ rel. units |  |  | 
